Results on one compound are retold here after patent US12337005B2, “Methods of treating thrombosis” (UNIVERSITY OF IOWA RESEARCH FOUNDATION, priority 2020, dated 2025).

Test [1] deals with murine platelets. Put plainly: ATP secretion from dense granules, mouse platelets. Format: cell-based. The settings on record: stimulus-activated mouse platelets pretreated with ML265. On the procedure: Platelet rich plasma (PRP) or washed platelets (2×10^8/ml) treated with vehicle (DMSO) or ML265 (50 and 100 μM) were stirred (1200 rpm) at 37° C. for 2 min in a whole blood/optical lumi-aggregometer (Chrono-log; model 700-2) before the addition of agonists (convulxin, collagen, thrombin, PAR4, TRAP (PAR1 agonist) or adenosine diphosphate [ADP]). Aggregation was measured as percent change in light transmission, where 100% refers to transmittance through the blank sample (PRP/Buffer). Platelet dense granule secretion was determined by measuring the release of ATP using luciferin-luciferase reagent. To examine the effect of ML265 on ATP secretion, washed platelets were pretreated with vehicle (DMSO) or ML265 (50 and 100 μM) for 10 minutes before stimulation with various agonists. ATP release was performed in a lumi-aggregometer (Chrono-log; model 700-2) at 37° C.

In test [2] the test system is murine platelets. The experiment in a line: P-selectin expression (α-granule secretion), mouse platelets. Format: cell-based. The settings on record: stimulus-activated mouse platelets pretreated with ML265. Here is the method: Platelets (1×10^8 cells in 100 μl) were pre-incubated for 10 min either in presence or absence of ML265 (50 and 100 μM) then stimulated by convulxin or TRAP without stirring. Following this, platelets were labeled with PE-labeled anti-CD61 antibody and FITC conjugated anti-CD62P antibody. The platelet samples were incubated for 30 min in the dark at room temperature and analyzed on the flow cytometer (FACS Calibur, Becton Dickinson). An amorphous region (gate) was drawn to differentiate the platelets from the noise and multi-platelet particles. After compensation for FITC and PE, CD61-positive 10,000 events were collected for each sample.

Molecules are shown by their SMILES.

On to `Cn1c2cc([S+](C)[O-])sc2c2cnn(Cc3cccc(N)c3)c(=O)c21` (centres unmarked) [ML265, 6-[(3-aminophenyl)methyl]-4,6-dihydro-4-methyl-2-(methylsulfinyl)-5H-thieno[2′,3′:4,5]pyrrolo[2,3-d]pyridazine-5-one], for which the “dense-granule secretion (ATP release)” value with murine platelets [1] is reported as “significant decrease”. In addition, in the test on murine platelets [2], the “α-granule secretion (P-selectin exposure)” value was “significant decrease”.
